Measured values published in patent publication US20250084040A1, “SUBSTITUTED HETEROCYCLES AS c-MYC TARGETING AGENTS” (Northwestern University, priority 2018, published 2025).

Assays:
[1] = In vitro metabolism, mouse liver microsomes; type: in vitro ADME; settings: % remaining of compound after 60 min treatment with mouse liver microsomes
Protocol: In vitro metabolism of NUCC-176242 and NUCC-176248 were tested using mouse liver microsomes and a mouse S9 fraction. (See FIG. 9).

[2] = system: NCI 60 cell panel; experiment: NCI 60 Cell One-Dose Screen; type: cell-based, human; settings: 1.00E−5 Molar; for Growth Percent, Delta: Delta of the mean graph; for Growth Percent, Mean: Mean over the cell panel; for Growth Percent, Range: Range over the cell panel
Protocol: General Description. As of early 2007 all compounds submitted to the NCI 60 Cell screen are tested initially at a single high dose (10^-5 M) in the full NCI 60 cell panel. Only compounds which satisfy pre-determined threshold inhibition criteria in a minimum number of cell lines will progress to the full 5-dose assay. The threshold inhibition criteria for progression to the 5-dose screen was selected to efficiently capture compounds with anti-proliferative activity based on careful analysis of historical DTP screening data. The threshold criteria may be updated as additional data becomes available.
Interpretation of One-Dose Data. The One-dose data will be reported as a mean graph of the percent growth of treated cells and will be similar in appearance to mean graphs from the 5-dose assay. The number reported for the One-dose assay is growth relative to the no-drug control, and relative to the time zero number of cells. This allows detection of both growth inhibition (values between 0 and 100) and lethality (values less than 0). This is the same as for the 5-dose assay, described below. For example, a value of 100 means no growth inhibition. A value of 40 would mean 60% growth inhibition. A value of 0 means no net growth over the course of the experiment. A value of −40 would mean 40% lethality. A value of −100 means all cells are dead. Information from the One-dose mean graph is available for COMPARE analysis.
The human tumor cell lines of the cancer screening panel are grown in RPMI 1640 medium containing 5% fetal bovine serum and 2 mM L-glutamine. For a typical screening experiment, cells are inoculated into 96 well microtiter plates in 100 μL at plating densities ranging from 5,000 to 40,000 cells/well depending on the doubling time of individual cell lines. After cell inoculation, the microtiter plates are incubated at […], 5% CO2, 95% air and 100% relative humidity for 24 h prior to addition of experimental drugs.
After 24 h, two plates of each cell line are fixed in situ with TCA, to represent a measurement of the cell population for each cell line at the time of drug addition (Tz). Experimental drugs are solubilized in dimethyl sulfoxide at 400-fold the desired final maximum test concentration and stored frozen prior to use. At the time of drug addition, an aliquot of frozen concentrate is thawed and diluted to twice the desired final maximum test concentration with complete medium containing 50 µg/ml gentamicin. Additional four, 10-fold or ½ log serial dilutions are made to provide a total of five drug concentrations plus control. Aliquots of 100 μl of these different drug dilutions are added to the appropriate microtiter wells already containing 100 μl of medium, resulting in the required final drug concentrations.
Following drug addition, the plates are incubated for an additional 48 h at 37° C., 5% CO2, 95% air, and 100% relative humidity. For adherent cells, the assay is terminated by the addition of cold TCA. Cells are fixed in situ by the gentle addition of 50 μl of cold 50% (w/v) TCA (final concentration, 10% TCA) and incubated for 60 minutes at 4° C. The supernatant is discarded, and the plates are washed five times with tap water and air dried. Sulforhodamine B (SRB) solution (100 μl) at 0.4% (w/v) in 1% acetic acid is added to each well, and plates are incubated for 10 minutes at room temperature. After staining, unbound dye is removed by washing five times with 1% acetic acid and the plates are air dried. Bound stain is subsequently solubilized with 10 mM trizma base, and the absorbance is read on an automated plate reader at a wavelength of 515 nm. For suspension cells, the methodology is the same except that the assay is terminated by fixing settled cells at the bottom of the wells by gently adding 50 μl of 80% TCA (final concentration, 16% TCA). […]

[3] = A549/ATCC (Non-Small Cell Lung Cancer)
[4] = EKVX (Non-Small Cell Lung Cancer)
[5] = HOP-62 (Non-Small Cell Lung Cancer)
[6] = HOP-92 (Non-Small Cell Lung Cancer)
[7] = MDA-MB-231/ATCC (Breast Cancer)
[8] = NCI-H23 (Non-Small Cell Lung Cancer)
[9] = NCI-H322M (Non-Small Cell Lung Cancer)
[10] = NCI-H460 (Non-Small Cell Lung Cancer)
[11] = NCI-H522 (Non-Small Cell Lung Cancer)

## CCCCCCOc1ccc(-c2cc(C(F)(F)F)n[nH]2)c(O)c1-c1cc(C(F)(F)F)cc(C(F)(F)F)c1 [NUCC-0201196]
[1]
  MLM % at 60 min: 66.6%

## Cn1nc(C(F)(F)F)cc1-c1ccc(OCc2ccc(Cl)cc2)c(-c2ccc(Cl)c(C(F)(F)F)c2)c1O [NSC: D-804955/1]
[2]; 786-0 (Renal Cancer)
  Growth Percent: 28.42%
[2]; A498 (Renal Cancer)
  Growth Percent: 5.29%
[2]; [3]
  Growth Percent: 12.83%
[2]; ACHN (Renal Cancer)
  Growth Percent: 5.21%
[2]; BT-549 (Breast Cancer)
  Growth Percent: 39.82%
[2]; CAKI-1 (Renal Cancer)
  Growth Percent: 19.80%
[2]; CCRF-CEM (Leukemia)
  Growth Percent: 9.89%
[2]; COLO 205 (Colon Cancer)
  Growth Percent: 24.55%
[2]; DU-145 (Prostate Cancer)
  Growth Percent: 19.03%
[2]
  Growth Percent, Delta: 35.96%
  Growth Percent, Mean: 13.53%
  Growth Percent, Range: 75.86%
[2]; [4]
  Growth Percent: 12.77%
[2]; HCC-2998 (Colon Cancer)
  Growth Percent: 13.50%
[2]; HCT-15 (Colon Cancer)
  Growth Percent: 8.53%
[2]; HCT-116 (Colon Cancer)
  Growth Percent: −0.40%
[2]; HL-60(TB) (Leukemia)
  Growth Percent: 9.30%
[2]; [5]
  Growth Percent: 50.48%
[2]; [6]
  Growth Percent: −22.43%
[2]; HS 578T (Breast Cancer)
  Growth Percent: 22.83%
[2]; HT29 (Colon Cancer)
  Growth Percent: 20.44%
[2]; IGROV1 (Ovarian Cancer)
  Growth Percent: 38.95%
[2]; KM12 (Colon Cancer)
  Growth Percent: 8.83%
[2]; LOX IMVI (Melanoma)
  Growth Percent: 5.24%
[2]; M14 (Melanoma)
  Growth Percent: 35.38%
[2]; MALME-3M (Melanoma)
  Growth Percent: 12.24%
[2]; MCF7 (Breast Cancer)
  Growth Percent: 4.01%
[2]; [7]
  Growth Percent: 8.70%
[2]; MDA-MB-435 (Melanoma)
  Growth Percent: 24.66%
[2]; MDA-MB-468 (Breast Cancer)
  Growth Percent: −18.75%
[2]; MOLT-4 (Leukemia)
  Growth Percent: 12.26%
[2]; [8]
  Growth Percent: −6.46%
[2]; [9]
  Growth Percent: 18.15%
[2]; [10]
  Growth Percent: 6.25%
[2]; [11]
  Growth Percent: −13.66%
[2]; NCI/ADR-RES (Ovarian Cancer)
  Growth Percent: 8.38%
[2]; OVCAR-3 (Ovarian Cancer)
  Growth Percent: 1.24%
[2]; OVCAR-4 (Ovarian Cancer)
  Growth Percent: 30.19%
[2]; OVCAR-5 (Ovarian Cancer)
  Growth Percent: 53.43%
[2]; OVCAR-8 (Ovarian Cancer)
  Growth Percent: 7.41%
[2]; PC-3 (Prostate Cancer)
  Growth Percent: 3.78%
[2]; RPMI-8226 (Leukemia)
  Growth Percent: −17.88%
[2]; SF-268 (CNS Cancer)
  Growth Percent: 26.01%
[2]; SF-295 (CNS Cancer)
  Growth Percent: 12.82%
[2]; SF-539 (CNS Cancer)
  Growth Percent: 34.37%
[2]; SK-MEL-2 (Melanoma)
  Growth Percent: 1.95%
[2]; SK-MEL-28 (Melanoma)
  Growth Percent: 31.16%
[2]; SK-OV-3 (Ovarian Cancer)
  Growth Percent: 20.62%
[2]; SN12C (Renal Cancer)
  Growth Percent: 6.24%
[2]; SNB-19 (CNS Cancer)
  Growth Percent: 19.21%
[2]; SNB-75 (CNS Cancer)
  Growth Percent: 47.69%
[2]; SR (Leukemia)
  Growth Percent: 25.07%
[2]; SW-620 (Colon Cancer)
  Growth Percent: 13.94%
[2]; T-47D (Breast Cancer)
  Growth Percent: −0.38%
[2]; TK-10 (Renal Cancer)
  Growth Percent: 0.36%
[2]; U251 (CNS Cancer)
  Growth Percent: 0.82%
[2]; UACC-62 (Melanoma)
  Growth Percent: 19.68%
[2]; UACC-257 (Melanoma)
  Growth Percent: 2.35%
[2]; UO-31 (Renal Cancer)
  Growth Percent: −6.34%

## Cn1nc(C(F)(F)F)cc1-c1ccc(OCc2ccc(Cl)cc2)c(-c2cccc(C#N)c2)c1O [NUCC-0198399]
[1]
  MLM % at 60 min: 80.3%

## CCCCOc1ccc(-c2cc(C(F)(F)F)n(C)n2)c(O)c1-c1cncc(C(F)(F)F)c1 [NUCC-0201209]
[1]
  MLM % at 60 min: 10.3%

## Oc1c(-c2cc(C(F)(F)F)n[nH]2)ccc(OCCN2CCCC2)c1-c1cc(C(F)(F)F)cc(C(F)(F)F)c1 [NUCC-0201032]
[1]
  MLM % at 60 min: 30.5%

## Cn1nc(C(F)(F)F)cc1-c1ccc(OCc2ccc(Cl)cc2)cc1C=O [NUCC-0200976]
[1]
  MLM % at 60 min: 21.8%

## Oc1cc(OCc2ccc(Cl)cc2)ccc1-c1n[nH]c(C(F)(F)F)c1Oc1ccccc1Cl [NUCC-0196342]
[1]
  MLM % at 60 min: 87.4%

## Oc1c(-c2cc(C(F)(F)F)[nH]n2)ccc(OCc2ccc(Cl)cc2)c1-c1ccccc1Cl [NUCC-0196363]
[1]
  MLM % at 60 min: 88.6%

## CC(C)CCOc1ccc(-c2cc(C(F)(F)F)n[nH]2)c(O)c1-c1cncc(C#N)c1 [NSC: D-804956/1]
[2]; 786-0 (Renal Cancer)
  Growth Percent: 17.07%
[2]; A498 (Renal Cancer)
  Growth Percent: −25.54%
[2]; [3]
  Growth Percent: 10.39%
[2]; ACHN (Renal Cancer)
  Growth Percent: 8.84%
[2]; BT-549 (Breast Cancer)
  Growth Percent: 6.56%
[2]; CAKI-1 (Renal Cancer)
  Growth Percent: 9.47%
[2]; CCRF-CEM (Leukemia)
  Growth Percent: 6.67%
[2]; COLO 205 (Colon Cancer)
  Growth Percent: 49.05%
[2]; DU-145 (Prostate Cancer)
  Growth Percent: 17.95%
[2]
  Growth Percent, Delta: 40.88%
  Growth Percent, Mean: 9.05%
  Growth Percent, Range: 80.88%
[2]; [4]
  Growth Percent: 3.52%
[2]; HCC-2998 (Colon Cancer)
  Growth Percent: 16.23%
[2]; HCT-15 (Colon Cancer)
  Growth Percent: 11.96%
[2]; HCT-116 (Colon Cancer)
  Growth Percent: 2.41%
[2]; HL-60(TB) (Leukemia)
  Growth Percent: 3.64%
[2]; [5]
  Growth Percent: 5.79%
[2]; [6]
  Growth Percent: −27.95%
[2]; HS 578T (Breast Cancer)
  Growth Percent: 17.96%
[2]; HT29 (Colon Cancer)
  Growth Percent: 48.91%
[2]; IGROV1 (Ovarian Cancer)
  Growth Percent: 46.89%
[2]; KM12 (Colon Cancer)
  Growth Percent: 7.94%
[2]; LOX IMVI (Melanoma)
  Growth Percent: 5.15%
[2]; M14 (Melanoma)
  Growth Percent: 22.46%
[2]; MALME-3M (Melanoma)
  Growth Percent: −0.80%
[2]; MCF7 (Breast Cancer)
  Growth Percent: 2.95%
[2]; [7]
  Growth Percent: 1.43%
[2]; MDA-MB-435 (Melanoma)
  Growth Percent: 7.91%
[2]; MDA-MB-468 (Breast Cancer)
  Growth Percent: −26.3%
[2]; MOLT-4 (Leukemia)
  Growth Percent: 22.96%
[2]; [8]
  Growth Percent: −0.16%
[2]; [9]
  Growth Percent: 12.44%
[2]; [10]
  Growth Percent: 3.48%
[2]; [11]
  Growth Percent: −6.89%
[2]; NCI/ADR-RES (Ovarian Cancer)
  Growth Percent: 2.45%
[2]; OVCAR-3 (Ovarian Cancer)
  Growth Percent: 2.95%
[2]; OVCAR-4 (Ovarian Cancer)
  Growth Percent: 20.48%
[2]; OVCAR-5 (Ovarian Cancer)
  Growth Percent: 36.89%
[2]; OVCAR-8 (Ovarian Cancer)
  Growth Percent: 12.48%
[2]; PC-3 (Prostate Cancer)
  Growth Percent: 1.74%
[2]; RPMI-8226 (Leukemia)
  Growth Percent: −31.83%
[2]; SF-268 (CNS Cancer)
  Growth Percent: 21.93%
[2]; SF-295 (CNS Cancer)
  Growth Percent: 0.83%
[2]; SF-539 (CNS Cancer)
  Growth Percent: 25.17%
[2]; SK-MEL-2 (Melanoma)
  Growth Percent: −13.82%
[2]; SK-MEL-28 (Melanoma)
  Growth Percent: 33.67%
[2]; SK-OV-3 (Ovarian Cancer)
  Growth Percent: −7.94%
[2]; SN12C (Renal Cancer)
  Growth Percent: 3.81%
[2]; SNB-19 (CNS Cancer)
  Growth Percent: 13.09%
[2]; SNB-75 (CNS Cancer)
  Growth Percent: 30.14%
[2]; SR (Leukemia)
  Growth Percent: 33.69%
[2]; SW-620 (Colon Cancer)
  Growth Percent: 14.25%
[2]; T-47D (Breast Cancer)
  Growth Percent: 2.83%
[2]; TK-10 (Renal Cancer)
  Growth Percent: 11.38%
[2]; U251 (CNS Cancer)
  Growth Percent: 2.85%
[2]; UACC-62 (Melanoma)
  Growth Percent: 17.46%
[2]; UACC-257 (Melanoma)
  Growth Percent: −14.05%
[2]; UO-31 (Renal Cancer)
  Growth Percent: 3.89%
